The structures appear in SMILES notation. “Also recorded” adds a separate entry of the source. Like-named read-outs stand apart in the source and are kept apart here. A value given as a limit tells only on which side of the number the result lay.

Series [1] can be described thus: in vivo. As to conditions: male, ICR, mouse, iv, 5 mg/kg, T1/2, terminal half-life in plasma, mice, diphenoxylate 5 mg/kg intravenously, analyte in plasma, mean ± SEM, three mice.
Series [2] deals with SARS-CoV-2 (original wild-type, hCoV-19/Korea/KCDC06/2020). Put plainly: microbe, parasite or virus in culture. It is filed as cell-based. The settings on record: for EC50: Severe acute respiratory syndrome coronavirus 2, Vero cells, immunofluorescence images, n = 3, read-out: EC50, half maximal effective concentration to reduce SARS-CoV-2 spike protein expression by 50%.
The subject of series [3] is endo-lysosomal vesicles of Vero cells. Put plainly: Acridine orange staining of endo-lysosomal vesicle pH in Vero cells. The class given is cell-based. As to conditions: 10 µM, 1 h at 37°C. On the procedure:
To monitor pH changes in endo-lysosomal vesicles, Vero cells (8 × 10^4 cells per 35 mm dish) were treated with either DMSO or 10 µM diphenoxylate for 1 h at 37°C. After washing with PBS, they were stained with acridine orange (8 µg/mL) for an additional 30 min. With excitation at 488 nm, live cell images were scanned at two wide-band emission wavelength ranges: 493–560 nm (green) and 590–720 nm (red). All fluorescent images were obtained using a Zeiss LSM 700 confocal microscope and analyzed with ZEN software (Carl Zeiss, Thornwood, NY, USA).
Fig 4 Deacidification of endo-lysosomal vesicles by diphenoxylate. Vero cells were treated with DMSO as a mock control (upper), or with 10 µM diphenoxylate (lower), at 37°C for 1 h. […] Fluorescence images were acquired after excitation at 488 nm, at two different emission wavelengths: 493–560 nm (green; left) and 590–720 nm (red; middle). The images were merged (right) to distinguish acidic (red) and neutralized cytoplasmic vesicles (green or yellow) based on the red-to-green fluorescence intensity ratio. […]
Figure S2. […] After excitation at 488 nm, fluorescence images were acquired at two different emission wavelengths: 493-560 nm (green; left) and 590-720 nm (red; middle). The images were merged (right) to distinguish acidic (red) and neutralized cytoplasmic vesicles (green or yellow) based on the red-to-green fluorescence intensity ratio. […]

Series [4] is described as follows: in vitro. As to conditions: African green monkey.
Experimental: Following the method described earlier, Vero cells in 96 wells were treated with threefold serial dilutions of each compound, ranging from 100 µM to 5 nM, both with and without SARS-CoV-2 infection at 0.01 MOI. […] Concurrently, the viability of mock-infected cells was assessed using a 3-(4,5-dimethylthiazol-2-yl)−2,5-diphenyltetrazolium bromide (MTT) assay to determine the 50% cytotoxic concentration (CC50). The selectivity index (SI) is calculated as the ratio of CC50 to EC50.
For series [5] the following is noted: mice.
The test system of series [6] is SARS-CoV-2. The class given is cell-based. As to conditions: Calu-3 cells, day 2.
The test system of series [7] is SARS-CoV-2. The class given is cell-based.
The test system of series [8] is SARS-CoV-2. It is filed as cell-based. As to conditions: Vero cells; 1, 10 and 100 µM; day 1.
The test system of series [9] is SARS-CoV-2. It is filed as cell-based. As to conditions: 20 µM, Vero cells; for nuclei numbers compared to the control: DAPI.
Series [10] relates to Calu-3 cells. The settings on record: MTT.
Experimental: Calu-3 cells. Calu-3 cells were either mock-infected or infected with SARS-CoV-2 (MOI, 0.1)
(§1) On Day 1 after treatment, the viral S protein was labeled with its specific antibody for an
immunofluorescence assay, while mock-infected cells were incubated with MTT. Antiviral
(§2) activity was determined by calculating the percentage inhibition of the S protein level relative
to that in SARS-CoV-2-infected, DMSO-treated cells (red line). Cell viability was determined
by measuring cell metabolic activity using MTT relative to naive cells (black line). All values
(§3) are represented as the mean ± SEM from three independent experiments.
Series [11] deals with SARS-CoV-2. The class given is cell-based. The source holds these as a separate data set.
Series [12] concerns SARS-CoV-2. Put plainly: Antiviral activity assay (anti-S immunofluorescence) in Calu-3 cells. As to conditions: Severe acute respiratory syndrome coronavirus 2, Calu-3, 24 h.
Text: These mixtures were serially diluted threefold, eight times, in EMEM and used to treat SARS-CoV-2-infected Calu-3 cells (MOI of 0.01). On day 1, cells were immunostained with an anti-S-antibody and its fluorescently labeled secondary antibody to estimate the two fractional EC50s (FEC50s) for each drug combination, as well as their sum (ΣFEC50). The interaction was defined as synergistic when the ΣFEC50 value was less than 0.8 ([27]).
Calu-3 cells were either mock-infected or infected with SARS-CoV-2 (MOI, 0.1)
as §1
immunofluorescence assay, while mock-infected cells were incubated with MTT.
as §2
to that in SARS-CoV-2-infected, DMSO-treated cells (red line).
as §3
Series [13] deals with SARS-CoV-2. It is filed as in vivo, mice.
Series [14] relates to SARS-CoV-2. Put plainly: Confocal microscopy of viral N protein distribution (endocytic uptake) in Vero cells. It is filed as cell-based. The settings on record: 10 or 30 µM.
Series [15] has as its system SARS-CoV-2. Nature of the series: Antiviral assay using human tonsil organoids (RT-PCR of supernatants). The settings on record: day 2. The class given is cell-based.
Series [16] has as its system SARS-CoV-2. It is filed as cell-based. The settings on record: Calu-3 cells; 0.001–100 µM; day 2.
For series [17] the following is noted: cited from earlier work.

`N#CC(CCN1CCC(C(=O)O)(c2ccccc2)CC1)(c1ccccc1)c1ccccc1` [Difenoxin, difenoxin]: the half-life in [1] is 6.4 h. In addition, the EC50 in [2] was over 100 µM. Further, the “effect on acidic pH of endo-lysosomal vesicles” value in series [3] is reported as “failed to deacidify endo-lysosomes”. The CC50 in [4] was over 100 µM. Moreover, in [5] (diphenoxylate 5 mg/kg intravenously, analyte in plasma, mean ± SEM, three mice), the “T1/2, terminal half-life in plasma” value stood at 3.6 ± 0.2 h.

Turning to `CCOC(=O)C1(c2ccccc2)CCN(CCC(C#N)(c2ccccc2)c2ccccc2)CC1` [Diphenoxylate, diphenoxylate], the “decrease of viral RNA levels in culture supernatants” value in series [6] (10 µM) was “one”. This compound also showed a half-life in [1] of 6.4 ± 0.9 h. In series [7], the “viral RNA copy numbers in culture supernatants” value was “efficiently suppressed”. Also, in series [8], the “levels of S2 and additional S cleavage products (Western blot)” value is “dose-dependently reduced”. In series [9], the “nuclei numbers compared to the control” value is listed as 80%–120%. In addition, in [9], the “reduction of S protein expression level” value is listed as “over 90%”. The “cytotoxicity at the highest tested concentration” value in [10] (300 µM) is on record as “no cytotoxicity”. The “SI, selectivity index, ratio of CC50 to EC50” value (from here on “SI, selectivity index, ratio”) in series [2] is on record as over 71.4. Moreover, the results for the EC50 in series [2] and in series [12] were 1.4 ± 1.1 µM and 21.9 ± 2.1 µM, respectively. Moreover, the “reduction in plaque numbers” value in series [11] was “approximately two-log reduction; also recorded: substantial reduction; also recorded: not under the post-treatment condition”; in [11] (20 µM, co-treatment (pre-incu), 30 min preincubation with virus), “substantial reduction”. Further, the “effect on acidic pH of endo-lysosomal vesicles” value in [3] was “neutralizes the acidic environment of endo-lysosomal organelles”. For the same compound, the “reduction of viral RNA copy number in the lungs” value in series [13] (hACE2 transgenic mice, […], on day 3, 10 mg/kg/day) is 70%. Also, the “viral RNA levels in lungs (qRT-PCR, S gene)” value in series [13] (mouse, in vivo, 10 mg/kg/day) is listed as “significantly reduced”. In addition, in series [14], the “effect on receptor-mediated endocytosis of SARS-CoV-2 (N protein localisation)” value is “inhibits receptor-mediated endocytosis of SARS-CoV-2”. The “reduction in viral RNA levels in culture supernatants” value in series [15] (100 µM) is “between one and two logs”. The compound also yielded a CC50 in series [4] of over 100 µM. The “fraction converted into difenoxin” value in [5] (within 30 min after intravenous injection, 5 mg/kg) is recorded as “approximately 90%”. The “expression of viral proteins S and N (Western blot)” value in series [16] is “suppressed the expression of viral proteins S and N dose dependently”.

Regarding `Fc1ccc(C(c2ccc(F)cc2)N2CCN(C/C=C/c3ccccc3)CC2)cc1` [Flunarizine, flunarizine], in [9], the “nuclei numbers compared to the control” value is given as 80%–120% and the “reduction of S protein expression level” value was “over 90%”. Also, in series [2], the “SI, selectivity index, ratio” value was determined as 2.4 and the EC50 is 12.9 ± 5.7 µM. Besides, the CC50 in series [4] was determined as 30.6 ± 1.8 µM.

Turning to `COC(=O)C1=C(C)NC(C)=C(C(=O)OCCN2CCN(C(c3ccccc3)c3ccccc3)CC2)C1c1cccc([N+](=O)[O-])c1` (stereo not drawn) [Manidipine, manidipine], in series [9], the “nuclei numbers compared to the control” value is listed as 80%–120% and the “reduction of S protein expression level” value is reported as “over 90%”. In addition, in series [2], the “SI, selectivity index, ratio” value was 1.7 and the EC50 was 26.8 ± 1.1 µM. Further, the CC50 in [4] amounted to 46.6 ± 0.5 µM.

Take `Cc1cccc(CN2CCN(C(c3ccccc3)c3ccc(Cl)cc3)CC2)c1` (stereo not drawn) [Meclizine, meclizine]: in series [9], the “nuclei numbers compared to the control” value is reported as 80%–120% and the “reduction of S protein expression level” value is reported as “over 90%”. Moreover, in [2], the “SI, selectivity index, ratio” value stood at 4.2 and the EC50 was 21.4 ± 3 µM. The same compound registered a CC50 in series [4] of 89.5 ± 4.4 µM.

With `CCC(CC)COC(=O)[C@H](C)N[P@](=O)(OC[C@H]1O[C@@](C#N)(c2ccc3c(N)ncnn23)[C@H](O)[C@@H]1O)Oc1ccccc1` [RDV, remdesivir], the “reduction of viral RNA levels in culture supernatants” value in series [6] (concentration not given) is “exceeding four logs”. In addition, the “viral RNA copy numbers in culture supernatants” value in series [7] is “efficiently suppressed”. Moreover, in [8], the “levels of S2 and additional S cleavage products (Western blot)” value is recorded as “dose-dependently reduced”. Further, the EC50 in series [2] stood at 7.6 ± 1.2 µM. For the same compound, the “reduction in viral RNA levels in culture supernatants” value in series [15] (10 µM) was “between one and two logs”. Moreover, the CC50 in series [4] is over 100 µM.

On to `CN(C)c1ccc2cc3ccc(N(C)C)cc3nc2c1` [acridine orange], for which the pKa result in [17] was “approximately 9.65”.

Consider `CC(C)C(=O)OC[C@H]1O[C@@H](n2ccc(NO)nc2=O)[C@H](O)[C@@H]1O` [molnupiravir], for which, in [13] (hACE2 transgenic mice, 50 mg/kg/day oral, BID, […]), the “viral RNA levels in lungs (qRT-PCR, S gene)” value is “significantly reduced”.

Take `N=C(N)c1ccc2cc(OC(=O)c3ccc(N=C(N)N)cc3)ccc2c1` [nafamostat]: the “cytotoxicity at the highest tested concentration” value in series [10] (300 nM) is recorded as “no cytotoxicity”. The EC50 in series [12] worked out at 0.0035 ± 0.0005 µM.

On to `OC(CCN1CCCCC1)(c1ccccc1)c1ccccc1` [pridinol], for which the EC50 in series [2] is about 96.4 µM.

The half-life is how long it takes for the measured level to halve.

Source of the values: publication PMC11620506, “Inhibition of endocytic uptake of severe acute respiratory syndrome coronavirus 2 and endo-lysosomal acidification by diphenoxylate” (Antimicrobial Agents and Chemotherapy, 2024).
